Reference: PMC6826779, “Bis-allylic Deuterated DHA Alleviates Oxidative Stress in Retinal Epithelial Cells” (Antioxidants, 2019)

Assay: Radical oxidation of DHAs with AAPH, LC-MS/MS quantification of 4-F4t-NeuroP
Assay type: physicochemical
Conditions: AAPH 1 mM, phosphate buffer/methanol, 37 °C, 14 h; compared to natural DHA
Experimental: A solution of DHA in methanol (1 mg/mL, 0.5 mL) was added to 4.5 mL of phosphate-buffered saline solution (pH = 7.3) containing 1 mM of AAPH. The mixture was heated at 37 °C for 14 h, and then allowed to reach room temperature The mixture was spiked with 4 ng of internal standard (IS: C21-15-F2t-IsoP) and then purified using solid phase extraction.
For solid-phase extraction (SPE), Oasis MAX mixed polymer phase anion exchanger cartridges were used. Aliquots of 2 mL of sample were loaded on the cartridges previously conditioned with 2 mL of methanol and equilibrated with 2 mL of 0.02 M of formic acid (pH 4.5). […] Recoveries were determined to range between 83 and 100% (see Supplementary Materials). […]
Mass spectrometry analysis was performed on an AB SCIEX QTRAP 5500 (Sciex). […] Quantification was accomplished using external calibration lines constructed with the internal standard (IS: C21-15-F2t-IsoP). The data are presented as means ± SD determined from 3 independent experiments, each performed in triplicate assay.
Standards solutions of IS (C21-15-F2t-IsoP) and NeuroP standardt (4(RS)-F4t-NeuroP) used to determine the different characteristic transitions and the elution time for each compound were prepared in methanol at 1 µg/mL from 1 mg/mL stock solution in methanol. […] Finally, calibration curves were calculated by the area ratio of the NeuroP and the internal standard.

| SMILES | 4-F4t-NeuroP formation after radical oxidation |
| --- | --- |
| [2H]C([2H])(/C=C\C/C=C\C/C=C\C/C=C\C/C=C\CC)/C=C\CCC(=O)O [D2-DHA, (6,6-D2)-DHA] | decrease of 4-F4t-NeuroP formation |
| [2H]C([2H])(C=CCC=CCC=CCC=CCC)C=CC([2H])([2H])C=CCCC(=O)O [D4-DHA, (6,6,9,9-D4)-DHA] | decrease of 4-F4t-NeuroP formation |
